One may read the EC50 as the concentration that produces a half-maximal response.

The source of these data is patent US6004938A, “Inositolglycans having insulin-like action” (Hoescht Aktiengesellschaft, priority 1996, dated 1999).

In experiment [1] the test system is rat fat cells. Briefly: Glucose transport in isolated rat fat cells (insulin-like activity). The settings on record: for Emax: 0.25 h, read-out: Glucose transport % Insmax; for EC50: read-out: Glucose transport EC50. It counts as cell-based, rat (Wistar). How it is done:
(§1) This example provides exemplary methods for determining insulin-like activity. The biological activity of the compounds of the formula I according to the invention is determined with the aid of isolated fat cells from the rat.
(§2) The preparation of fat cells from the rat was carried out as follows: White fatty tissue of the epididymis (Wistar rat, 160-180 g, no food restriction) is digested with collagenase and the resulting isolated fat cells are separated off by means of filtration of undigested tissue and washed by flotation several times using Krebs-Ringer-Henseleit buffer (KRH buffer).
[…] After addition of 15 μl of 2-[^3 H]-deoxyglucose (0.3 mM, 0.2 μCi), the incubation is continued at room temperature. After specified times (0-20 min), 100 μl of the test batch are removed and transferred to a reaction vessel (contents 400 μl), in which 250 μl of dinonyl phthalate have been initially introduced. After centrifugation (15,000×g, 1 min), the cells are separated off from the oily layer of the incubation medium underneath the oily layer by cutting the tube at the level of the oily layer and transferring to a scintillation vessel. After addition of 5 ml of water-soluble scintillation fluid, the radioactivity is determined. This total cell-associated radioactivity is corrected for [^3 H]-deoxyglucose which has passively diffused into the cells and is included in the cell interstices by subtraction of a control value (incubation in the presence of the glucose transport inhibitor cytochalasin B). The initial (stimulated) glucose transport rate is linear up to 15 min. The maximum stimulation factor--this is the ratio of the incubation result with insulin to the incubation result without insulin--is set at 100%.
The terms "%Insmax " and "EC50 " are as defined under A) lipogenesis.

The test system of experiment [2] is rat fat cells. Briefly: Lipogenesis in isolated rat fat cells (insulin-like activity). Format: cell-based, rat (Wistar). The settings on record: for EC50: read-out: Lipogenesis EC50; for Emax: read-out: Lipogenesis % Insmax. On the procedure: as §1, §2
This test determines the insulin-stimulable conversion of glucose into toluene-soluble products (triglycerides, phospholipids, fatty acids), which promotes glucose transport and triglyceride (glycerol-3-P synthesis, esterification)/phospholipid/fatty acid synthesis including the insulin signal transmission cascade. At a glucose concentration of 2.5 mM in the test, the esterification (and not the glycerol-3-P synthesis including glucose transport) is rate-determining for the stimulation of lipogenesis.
200 μl (3×10^5 cells/ml) of rat fat cells in KRH buffer are incubated at 37° C. for 90 min with 100 μl of D-[3-^3 H] glucose (25 mM, 0.4 μCi) in the presence or absence of insulin (10 ng/ml) or compound of the formula I according to the invention (final volume 1 ml). By addition of a toluene-soluble scintillation cocktail (10 ml), the cells are disrupted and the lipids are separated off from water-soluble products and the incubation medium. After phase separation, the radioactivity incorporated in lipid products is determined directly without removal of the aqueous phase by scintillation measurement ([^3 H]lipid [dpm×10^-3 ]). A control value (incubation under identical conditions but without cells) is subtracted from this radioactivity. The lipogenesis rate is linear up to 120 min. The maximum stimulation factor--this is the ratio of the incubation result with insulin to the incubation results without insulin--is set at 100%. The percentage data under "%Insmax " are parts of the maximum stimulation factor defined in this way. The term EC50 indicates the concentration of the compound of the formula I at which 50% of the maximum stimulation to be achieved by the respective compound of the formula I is to be observed.

Setting [3] is: part of maximum stimulation factor of insulin (set at 100%), rat fat cells, 15 min, 37° C., 2-[3H]-deoxyglucose.
Setting [4] is: concentration at 50% of the maximum stimulation achieved by the respective compound, rat fat cells, 2-[3H]-deoxyglucose.
Where [5] appears, read: 1.5 h, concentration at 50% of the maximum stimulation achieved by the respective compound, rat fat cells, 90 min, 37° C.
[6] abbreviates: 1.5 h, part of maximum stimulation factor of insulin (set at 100%), rat fat cells, 90 min, 37° C., D-[3-3H]glucose.
[7] abbreviates: concentration at 50% of the maximum stimulation achieved by the respective compound, rat fat cells, 90 min, 37° C.
Setting [8] is: part of maximum stimulation factor of insulin (set at 100%), rat fat cells, 90 min, 37° C., D-[3-3H]glucose.

Turning to `N[C@H]1[C@H](O[C@H]2[C@H](O)[C@@H](O)[C@H](O)[C@@H]3OP(=O)(O)O[C@H]23)O[C@H](CO)[C@@H](O[C@H]2O[C@H](CO[C@H]3O[C@H](CO)[C@@H](O)[C@H](O)[C@@H]3O[C@H]3O[C@H](CO[PH](=O)O)[C@@H](O)[C@H](O)[C@@H]3O[C@H]3O[C@H](CO)[C@@H](O)[C@H](O)[C@@H]3O)[C@@H](O)[C@H](O)[C@@H]2O)[C@@H]1O` [A, HO-PO(H)O-6Manα1(Manα1-2)-2Manα1-6Manα1-4GluNβ1-6(L)inositol-1,2-(cyclic)-phosphate], the Emax in experiment [1] (setting [3]) stood at 28%; in experiment [2] (setting [6]), 59%. In addition, the results for the EC50 in experiment [1] (setting [4]) and in experiment [2] (setting [5]) were 8 µM and 7 µM, respectively.
For `N[C@H]1[C@H](O[C@H]2[C@H](O)[C@@H](O)[C@H](OP(=O)(O)O)[C@H](O)[C@@H]2O)O[C@H](CO)[C@@H](O)[C@@H]1O[C@H]1O[C@H](CO[C@H]2O[C@H](CO[PH](=O)O)[C@@H](O)[C@H](O)[C@@H]2O[C@H]2O[C@H](CO[PH](=O)O)[C@@H](O)[C@H](O)[C@@H]2O[C@H]2O[C@H](CO)[C@@H](O)[C@H](O)[C@@H]2O)[C@@H](O)[C@H](O)[C@@H]1O` [T, HO-PO(H)O-6Manα1(Manα1-2)-2Manα1(6-PO(H)OH)-6Manα1-3GluNβ1-6(L)inositol-3-phosphate] the same measures were 30%, 72%, 10 µM and 12 µM.
Regarding `N[C@H]1[C@H](O[C@H]2[C@H](O)[C@@H](O)[C@H](OP(=O)(O)O)[C@H](O)[C@@H]2O)O[C@H](CO)[C@@H](O)[C@@H]1O[C@H]1O[C@H](CO[C@H]2O[C@H](CO)[C@@H](O)[C@H](O)[C@@H]2O[C@H]2O[C@H](CO[PH](=O)O)[C@@H](O)[C@H](O)[C@@H]2O[C@H]2O[C@H](CO)[C@@H](O)[C@H](O)[C@@H]2O)[C@@H](O)[C@H](O)[C@@H]1O` [D, HO-PO(H)O-6Manα1(Manα1-2)-2Manα1-6Manα1-3GluNβ1-6(L)inositol-3-phosphate], the Emax in experiment [1] (setting [3]) was found to be 18%; in experiment [2] (setting [6]) it was 33%. In addition, the EC50 in experiment [1] (setting [4]) was determined as 18 µM; in experiment [2] (setting [5]) it was 20 µM.
On the same counts, the results for `N[C@H]1[C@H](O[C@@H]2[C@@H](O)[C@H](O)[C@@H](O)[C@H]3OP(=O)(O)O[C@H]32)O[C@H](CO)[C@@H](O[C@H]2O[C@H](CO[C@H]3O[C@H](CO)[C@@H](O)[C@H](O)[C@@H]3O[C@H]3O[C@H](CO[PH](=O)O)[C@@H](O)[C@H](O)[C@@H]3O[C@H]3O[C@H](CO)[C@@H](O)[C@H](O)[C@@H]3O)[C@@H](O)[C@H](O)[C@@H]2O)[C@@H]1O` [B, HO-PO(H)O-6Manα1(Manα1-2)-2Manα1-6Manα1-4GluNβ1-6(D)inositol-1,2-(cyclic)-phosphate] are 41%, 77%, 8.1 µM and 8.2 µM.
Turning to “HO-PO(H)O-6Manα1(Manα1-2)-2-Manα1-6-Manα1-4GluN(HSO3)β-1-6(L)-inositol-1,2-(cyclic)-phosphate [J]”, the values for the EC50 in experiment [1] (setting [4]) and in experiment [2] (setting [7]) were 3 µM and 8 µM, respectively. For the same compound, the “Glucose transport % Insmax” value in experiment [1] (setting [3]) is 21%. In experiment [2] (setting [8]), the “Lipogenesis % Insmax” value is reported as 63%.
`N[C@H]1[C@H](O[C@@H]2[C@@H](O)[C@H](O)[C@@H](O)[C@H]3OP(O)(=S)O[C@H]32)O[C@H](CO)[C@@H](O[C@H]2O[C@H](CO[C@H]3O[C@H](CO)[C@@H](O)[C@H](O)[C@@H]3O[C@H]3O[C@H](CO[PH](=O)O)[C@@H](O)[C@H](O)[C@@H]3O[C@H]3O[C@H](CO)[C@@H](O)[C@H](O)[C@@H]3O)[C@@H](O)[C@H](O)[C@@H]2O)[C@@H]1O` (stereo partly drawn) [C, HO-PO(H)O-6Manα1(Manα1-2)-2Manα1-6Manα1-4GluNβ1-6(D)inositol-1,2-(cyclic)-thiophosphate]: the Emax in experiment [1] (Rattus norvegicus) amounted to 29%; in experiment [2] (Rattus norvegicus, 1.5 h), 64%. The EC50 is 10 µM in experiment [1] (Rattus norvegicus) and 7 µM in experiment [2] (Rattus norvegicus, 1.5 h).
For the compound `N[C@H]1[C@H](O[C@@H]2[C@@H](O)[C@H](O)[C@@H](O)[C@H]3OP(=O)(O)O[C@H]32)O[C@H](CO)[C@@H](O[C@H]2O[C@H](CO[C@H]3O[C@H](CO[PH](=O)O)[C@@H](O)[C@H](O)[C@@H]3O[C@H]3O[C@H](CO[PH](=O)O)[C@@H](O)[C@H](O)[C@@H]3O[C@H]3O[C@H](CO)[C@@H](O)[C@H](O)[C@@H]3O)[C@@H](O)[C@H](O)[C@@H]2O)[C@@H]1O` [M, HO-PO(H)O-6Manα1(Manα1-2)-2Manα1(6-PO(H)OH)-6Manα1-4GluNβ1-6(D)-inositol-1,2-(cyclic)-phosphate], the Emax in experiment [1] (setting [3]) is 39%; in experiment [2] (setting [6]), 90%. The figures for the EC50 in experiment [1] (setting [4]) and in experiment [2] (setting [5]) were 6 µM and 7 µM, respectively.
“HO-PO(H)O-6Manα1(Manα1-2)-2Manα1-6Manα1-4GluNα1-6(L)inositol-2-phosphate [F]”: the EC50 was 25 µM in experiment [1] (setting [4]) and 15 µM in experiment [2] (setting [7]). In experiment [1] (setting [3]), the “Glucose transport % Insmax” value stood at 26%. Also, the “Lipogenesis % Insmax” value in experiment [2] (setting [8]) was determined as 53%.
For `N[C@H]1[C@H](O[C@H]2[C@H](O)[C@@H](O)[C@H](OP(=O)(O)O)[C@H](O)[C@@H]2O)O[C@H](CO)[C@@H](O)[C@@H]1O[C@H]1O[C@H](CO[C@H]2O[C@H](COS(=O)(=O)O)[C@@H](O)[C@H](O)[C@@H]2O[C@H]2O[C@H](CO)[C@@H](O)[C@H](O)[C@@H]2O[C@H]2O[C@H](CO)[C@@H](O)[C@H](O)[C@@H]2O)[C@@H](O)[C@H](O)[C@@H]1O` [V, Manα1(Manα1-2)-2Manα1(6-HSO3)-6Manα1-3GluNβ1-6(L)inositol-3-phosphate], the Emax came out at 48% in experiment [1] (setting [3]) and 83% in experiment [2] (setting [6]). Moreover, the EC50 in experiment [1] (setting [4]) and in experiment [2] (setting [5]) was 15 µM each time.
